# Results taken from patent publication US8354400B2, “Benzoxazole compounds and methods of use” (Eisai R&D Co., Ltd., priority 2008, dated 2013).
# Where two headings read alike, the source gives them in different places.
# Legend:
# Type in all cases: cell-based
# human TLR9 = target: T1, human TLR9 (Homo sapiens, UniProt Q9NR96); experiment: Primary assay: HEK/TLR9 activation (NF-kB luciferase reporter, Oligo CpG 2006 stimulation)
# T1 construct: expressed in transfected cells; host or cells: HEK293 (ATCC No. CRP-1573 [sic])
# T1 sequence (Q9NR96 26-1032): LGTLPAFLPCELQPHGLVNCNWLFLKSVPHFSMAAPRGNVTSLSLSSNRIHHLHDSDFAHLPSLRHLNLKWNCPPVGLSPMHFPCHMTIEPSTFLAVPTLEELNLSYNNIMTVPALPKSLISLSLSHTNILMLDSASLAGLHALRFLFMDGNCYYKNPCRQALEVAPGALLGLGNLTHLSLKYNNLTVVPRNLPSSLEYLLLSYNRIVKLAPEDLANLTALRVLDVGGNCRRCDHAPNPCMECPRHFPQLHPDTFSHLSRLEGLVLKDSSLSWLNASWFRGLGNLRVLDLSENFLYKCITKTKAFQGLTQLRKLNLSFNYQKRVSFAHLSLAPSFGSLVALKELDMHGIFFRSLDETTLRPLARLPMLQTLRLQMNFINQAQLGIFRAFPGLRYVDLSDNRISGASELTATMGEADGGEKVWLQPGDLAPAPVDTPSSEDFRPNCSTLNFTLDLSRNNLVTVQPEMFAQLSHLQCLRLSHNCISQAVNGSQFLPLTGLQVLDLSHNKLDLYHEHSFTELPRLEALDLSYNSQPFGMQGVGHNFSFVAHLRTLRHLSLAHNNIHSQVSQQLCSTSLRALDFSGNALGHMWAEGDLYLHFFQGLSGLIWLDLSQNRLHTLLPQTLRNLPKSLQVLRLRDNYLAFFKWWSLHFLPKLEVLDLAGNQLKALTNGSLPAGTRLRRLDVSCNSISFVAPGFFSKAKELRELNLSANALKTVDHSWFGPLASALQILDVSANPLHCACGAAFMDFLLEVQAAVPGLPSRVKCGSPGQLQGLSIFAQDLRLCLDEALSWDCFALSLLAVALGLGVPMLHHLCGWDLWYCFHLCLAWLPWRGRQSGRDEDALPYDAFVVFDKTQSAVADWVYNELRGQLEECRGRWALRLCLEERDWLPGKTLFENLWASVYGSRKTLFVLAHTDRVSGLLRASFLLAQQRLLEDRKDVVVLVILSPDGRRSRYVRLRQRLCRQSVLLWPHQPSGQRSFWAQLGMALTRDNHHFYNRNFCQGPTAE
# From the text: A. Primary Assay. The primary assay involved transfecting human embryonic kidney epithelial (HEK) cells with TLR9. More specifically, HEK293 […] cells (ATCC No. CRP-1573, American Type Culture Collection, Manassas, Va.) were transfected with pcDNA3.1D/V5-His-TOPO® plasmid (Invitrogen, Carlsbad, Calif.) encoding human TLR9 (directly inserted as a Tag polymerase-amplified PCR product) and firefly luciferase under the control of three NF-kB binding sites contained in the E-selectin-1 promoter, which was cloned into a pGL3-Enhancer Vector (Promega Corp, Madison, Wis.). Each compound was added to cells 30 min. before stimulation with Oligo CpG 2006, a synthetic phosphorothioate oligonucleotide (Hartmann et al., J Immunol. 164:1617-24 (2000)), with nucleotide sequence 5′-TCGTCGTTTTGTCGTTTTGTCGTT-3′ (SEQ ID NO:1). The cells were incubated overnight at 37° C. The luciferase substrate Steady-Glo® (Promega) was added to the wells, and luminescence was measured to determine the extent of TLR9-driven gene activation. The luminescence data was used to calculate an IC50 for each sample. The IC50 is defined as the concentration of compound that suppresses the luminescence to 50% of that observed in the absence of compound, in other words, with full stimulation.
# human TLR7 = target: T2, human TLR7 (Homo sapiens, UniProt Q9NYK1); experiment: HEK/TLR7 activation assay (R848 stimulation); conditions: HEK cells transfected with human TLR7
# T2 construct: expressed in transfected cells; host or cells: HEK cell line (HEK293, as in the primary assay)
# T2 sequence (Q9NYK1 27-1049): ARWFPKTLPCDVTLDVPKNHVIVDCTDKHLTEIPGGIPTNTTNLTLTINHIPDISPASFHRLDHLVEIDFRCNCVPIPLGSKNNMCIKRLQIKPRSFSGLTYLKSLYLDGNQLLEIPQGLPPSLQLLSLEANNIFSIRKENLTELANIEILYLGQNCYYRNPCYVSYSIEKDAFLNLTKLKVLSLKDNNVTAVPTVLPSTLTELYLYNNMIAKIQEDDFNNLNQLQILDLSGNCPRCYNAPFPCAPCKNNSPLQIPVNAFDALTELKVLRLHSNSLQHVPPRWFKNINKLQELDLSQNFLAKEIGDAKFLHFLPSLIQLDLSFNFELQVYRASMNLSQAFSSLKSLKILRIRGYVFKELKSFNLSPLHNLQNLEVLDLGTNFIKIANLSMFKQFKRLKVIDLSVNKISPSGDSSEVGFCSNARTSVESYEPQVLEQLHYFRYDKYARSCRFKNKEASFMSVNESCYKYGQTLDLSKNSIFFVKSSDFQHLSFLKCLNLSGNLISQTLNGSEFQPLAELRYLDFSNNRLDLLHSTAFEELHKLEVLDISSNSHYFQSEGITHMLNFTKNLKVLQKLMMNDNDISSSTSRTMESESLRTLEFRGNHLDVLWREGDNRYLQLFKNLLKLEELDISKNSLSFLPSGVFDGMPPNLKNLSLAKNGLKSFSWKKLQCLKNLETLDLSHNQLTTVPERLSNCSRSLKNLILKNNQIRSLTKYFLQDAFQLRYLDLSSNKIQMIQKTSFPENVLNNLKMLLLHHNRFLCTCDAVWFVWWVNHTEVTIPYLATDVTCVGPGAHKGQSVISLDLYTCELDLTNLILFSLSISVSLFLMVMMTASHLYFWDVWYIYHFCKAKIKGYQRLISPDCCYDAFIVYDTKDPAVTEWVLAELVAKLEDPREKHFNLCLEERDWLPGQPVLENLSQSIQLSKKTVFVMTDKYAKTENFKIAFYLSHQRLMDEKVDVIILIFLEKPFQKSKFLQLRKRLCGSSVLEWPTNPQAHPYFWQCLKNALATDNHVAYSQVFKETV
# Experimental: (1) HEK/TLR7Activation Assay: The same compounds were tested in the same way as the primary assay with the following differences. The plasmid used to transfect the HEK cell line encoded for human TLR7 instead of TLR9, and R848 was used to stimulate the cells instead of Oligo CpG 2006.
# [1] = system: mouse spleen IL-6 production in response to Oligo CpG 1668; experiment: Splenocyte CpG 1668 assay (IL-6 ELISA); conditions: mouse splenocytes, Oligo CpG 1668, 72 hrs
# Experimental: (2) Splenocyte CpG 1668 Assay: Some of the compounds tested in the primary assay were also assayed for suppression of mouse spleen IL-6 production in response to stimulation with Oligo CpG 1668, a synthetic phosphorothioate oligonucleotide (Krieg et al. Nature. 374:546-9 (1995)), with nucleotide sequence [NT] (SEQ ID NO:2). Each compound was added to dissociated splenocytes before addition of stimulatory oligonucleotide. Cells were stimulated in culture for 72 hrs and the supernatant was removed for ELISA analysis of IL-6 level. Here the IC50 is defined as the concentration of compound that suppresses cytokine production to 50% of that observed in the absence of compound, i.e., full stimulation.
# [2] = system: dissociated mouse splenocytes; experiment: Spleen CellTiter-Glo viability assay; conditions: Splenocyte, 72 hours, viability (ATP)
# Experimental: (3) Spleen CT Glo Assay: To determine if compounds had adverse effects on living cells, dissociated mouse splenocytes were incubated with some of the compounds for 72 hours. At the end of the incubation Celliter-Glo™ reagent (Promega Corporation, Madison, Wis.) was added and luminescence was read per manufacturer's instructions. This reagent measures ATP as an indication of cell metabolism. Dead cells will not produce signal. IC50 is defined as the concentration of compound that suppresses viability to 50% of that observed in the absence of compound. The few compounds that measurably affected viability did so at concentrations far above those that affected cytokine release in response to TLR9 stimulation.
# [3] = HEK293 transfected with human TLR9 and NF-kB luciferase, compound 30 min before Oligo CpG 2006, overnight, read-out: HEK/TLR9 IC50
# [4] = read-out: IC50 in the primary HEK/TLR9 assay
IC50 (human TLR9; [3]) [nM],IC50 (human TLR7) [nM],IC50 [1] [nM],IC50 (human TLR9; [4]) [nM],Structure (SMILES),IC50 [2] [nM]
5.3,170,6,,CN(C)[C@H]1CCN(CCCOc2ccc(-c3nc4ccc(OCCCN5CC[C@H](N(C)C)C5)cc4o3)cc2)C1 [Compound 17],> 10000
34,> 2500,,,CN(C)CCCCN(C)CCCOc1ccc(-c2nc3ccc(OCCCN(C)CCCCN(C)C)cc3o2)cc1 [Compound 38],
9.6,580,10,,CCN(CC)CCN(CC)CCCOc1ccc(-c2nc3ccc(OCCCN(CC)CCN(CC)CC)cc3o2)cc1 [Compound 32],> 10000
19.2,1400,,,COCCN(C)CCCOc1ccc(-c2nc3ccc(OCCCN(C)CCOC)cc3o2)cc1 [Compound 18],9900
27.6,1100,,,c1cc(N2CCN(CCCOc3ccc(-c4nc5ccc(OCCCN6CCN(c7ccncc7)CC6)cc5o4)cc3)CC2)ccn1 [Compound 19],10000
,2690,1020,160,"c1cc(-c2nc3ccc(OC4CCNC4)cc3o2)ccc1OC1CCNC1 (stereo not drawn) [Comparator, reference compound]",
13.3,1240,,,CCN(C)CCCOc1ccc(-c2nc3ccc(OCCCN(C)CC)cc3o2)cc1 [Compound 21],9580
100,8520,,,CCNCCCOc1ccc(-c2nc3ccc(OCCCNCC)cc3o2)cc1 [Compound 33],
12.5,1550,,,C1=CCN(CCCOc2ccc(-c3nc4ccc(OCCCN5CC=CCC5)cc4o3)cc2)CC1 [Compound 28],> 10000
20.2,8410,,,O[C@H]1CC[C@H](NCCCOc2ccc(-c3nc4ccc(OCCCN[C@H]5CC[C@H](O)CC5)cc4o3)cc2)CC1 [Compound 6],
15.3,350,26,,CC(C)(CN1CCOCC1)NCCCOc1ccc(-c2nc3ccc(OCCCNC(C)(C)CN4CCOCC4)cc3o2)cc1 [Compound 10],9800
19.3,780,42,,CCCN(C)CCCOc1ccc(-c2nc3ccc(OCCCN(C)CCC)cc3o2)cc1 [Compound 29],10400
23.2,2240,,,CCOCCN1CCN(CCCOc2ccc(-c3nc4ccc(OCCCN5CCN(CCOCC)CC5)cc4o3)cc2)CC1 [Compound 15],> 10000
30,> 2500,,,CN(C)CCCOCCCN(C)CCCOc1ccc(-c2nc3ccc(OCCCN(C)CCCOCCCN(C)C)cc3o2)cc1 [Compound 37],
6.4,600,8,,c1cc(-c2nc3ccc(OCCCN4CCC[C@H]4CN4CCCC4)cc3o2)ccc1OCCCN1CCC[C@H]1CN1CCCC1 [Compound 24],> 10000
38,> 2500,,,CN(C)CCOCCN(C)CCCOc1ccc(-c2nc3ccc(OCCCN(C)CCOCCN(C)C)cc3o2)cc1 [Compound 36],
12,1800,,,CN(C)CCCOc1ccc2nc(-c3ccccc3OCCCN(C)C)oc2c1 [Compound 4],
11,2000,,,CN(C)CCCOc1cccc(-c2nc3ccc(OCCCN(C)C)cc3o2)c1 [Compound 5],
23,1400,,,CN(C)CCCCCOc1ccc(-c2nc3ccc(OCCCCCN(C)C)cc3o2)cc1 [Compound 3],
120,9050,,,CN(C)CCCNCCCOc1ccc(-c2nc3ccc(OCCCNCCCN(C)C)cc3o2)cc1 [Compound 9],
19.7,1230,,,c1ccc(CNCCCOc2ccc(-c3nc4ccc(OCCCNCc5ccccn5)cc4o3)cc2)nc1 [Compound 8],7820
23.3,1310,,,COCCNCCCOc1ccc(-c2nc3ccc(OCCCNCCOC)cc3o2)cc1 [Compound 7],> 10000
18.2,,48,,COC[C@@H]1CCCN1CCCOc1ccc(-c2nc3ccc(OCCCN4CCC[C@H]4COC)cc3o2)cc1 [Compound 25],> 10000
31,7800,290,60,CN(C)CCOc1ccc(-c2nc3ccc(OCCN(C)C)cc3o2)cc1 [Compound 1],
